According to ChEMBL document CHEMBL1150158, “Lyngbyastatin 1 and Ibu-epilyngbyastatin 1: synthesis, stereochemistry, and NMR line broadening” (J Nat Prod, 2002):
Values after ≈ are worked out from the molar mass of the structure shown. Numbered stars: 1 amine (or outer) side, 2 acyl side, 3 side chain; on linkers, the order of the positions; unused ones are H or OH. Square brackets hold non-standard residues; d marks the D form. Peptide text beside a SMILES is read from it. X1 = CC[C@H](C)[C@H](OC(=O)[C@@H](C)[C@@H](CC)N[*:1])C(=O)[*:2]; X3 = C[C@@H](N[*:1])C(=O)C(C)(C)C(=O)[*:2]; X2 = C[C@H](N[*:1])C(=O)C(C)(C)C(=O)[*:2]; NMeY = CN[C@@H](Cc1ccc(O)cc1)C(=O)O; NMeL = CN[C@@H](CC(C)C)C(=O)O; NMeV = CN[C@H](C(=O)O)C(C)C

Tests used:
NCI-H460 = assay: Growth inhibition of human NCI-H460 cells; format: functional
DU-145 = assay: Growth inhibition of human DU145 cells; format: functional
[1] = Induction of rabbit muscle actin polymerization after 1 hr; design: species or system Oryctolagus cuniculus, Muscle tissue

Structure (SMILES)	GI50 (NCI-H460)	GI50 (DU-145)	EC50 [1]
CC[C@H](C)[C@@H]1OC(=O)[C@@H](C)[C@@H](CC)NC(=O)[C@H](C)NC(=O)C(C)(C)C(=O)[C@@H](C)NC(=O)[C@H](Cc2ccc(OC)cc2)N(C)C(=O)[C@H](C(C)C)N(C)C(=O)CNC(=O)[C@H](CC(C)C)N(C)C(=O)CNC1=O (cyclo(A[X1]G[NMeL]G[NMeV][NMeY](Me)[X3]))	0.031 µg/mL (≈ 0.0315 µM)	0.24 µg/mL (≈ 0.244 µM)	
CC[C@H](C)[C@@H]1OC(=O)[C@@H](C)[C@@H](CC)NC(=O)[C@H](C)NC(=O)C(C)(C)C(=O)[C@H](C)NC(=O)[C@H](Cc2ccc(OC)cc2)N(C)C(=O)[C@H](C(C)C)N(C)C(=O)CNC(=O)[C@H](CC(C)C)N(C)C(=O)CNC1=O [DOLASTATIN 11] (cyclo(A[X1]G[NMeL]G[NMeV][NMeY](Me)[X2]))	0.0013 µg/mL (≈ 0.00132 µM)	0.22 µg/mL (≈ 0.223 µM)	9.5 µM
